Reference: US8304258B2, “Methods of producing monoclonal antibodies specific for human hepcidin” (DRG International, Inc., priority 2002, dated 2012)

Assays:
[1] = biological target: T1, Ferroportin-GFP (Fpn-GFP) (Mus musculus, UniProt Q9JHI9); test: Fpn-GFP internalization in HEK293-Fpn cells, epi-fluorescence microscopy; assay type: cell-based
T1 construct: expressed in transfected cells; host or cells: EcR293 cells (resulting HEK293-Fpn cells), induced with ponasterone for 24 h
T1 sequence (Q9JHI9 1-570): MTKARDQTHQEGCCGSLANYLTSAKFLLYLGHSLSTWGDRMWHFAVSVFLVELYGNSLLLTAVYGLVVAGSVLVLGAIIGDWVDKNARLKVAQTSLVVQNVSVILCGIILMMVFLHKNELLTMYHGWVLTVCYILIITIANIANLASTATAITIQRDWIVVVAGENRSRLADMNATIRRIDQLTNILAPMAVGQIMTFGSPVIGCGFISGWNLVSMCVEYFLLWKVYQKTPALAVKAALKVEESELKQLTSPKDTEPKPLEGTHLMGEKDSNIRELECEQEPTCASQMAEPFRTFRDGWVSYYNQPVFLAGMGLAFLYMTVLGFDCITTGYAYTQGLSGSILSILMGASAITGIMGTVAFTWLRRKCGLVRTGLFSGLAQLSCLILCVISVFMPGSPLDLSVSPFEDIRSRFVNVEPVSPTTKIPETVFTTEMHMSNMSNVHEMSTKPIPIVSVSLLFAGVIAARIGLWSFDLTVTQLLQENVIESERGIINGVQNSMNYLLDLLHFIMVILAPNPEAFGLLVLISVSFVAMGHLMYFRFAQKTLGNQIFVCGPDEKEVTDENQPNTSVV
Excerpt: In one embodiment, the antibodies of the instant invention (e.g., the antibodies capable of binding SEQ ID NO:2, SEQ ID NO:3, SEQ ID NO:4, SEQ ID NO:5) may be used to inactivate hepcidin. In one embodiment, EcR293 cells were stably transfected with a plasmid containing an ecdysone-regulated Ferroportin-GFP (Fpn-GFP) construct (Nemeth et al. Science 306:2090-2093, (2004)). In resulting HEK293-Fpn cells bioactive hepcidin binds to ferroportin and specifically induces the internalization of Fpn-GFP. Briefly, Fpn-GFP was induced by ponasterone treatment for 24 h. Cells were then incubated with 0.1 to 0.5 μM purified human hepcidin (from urine) for 6 h and imaged by epi-fluorescence microscopy. […] When hepcidin was absent from the medium, there was no internalization of Fpn-GFP.
cR293 cells were stably transfected with a plasmid containing an ecdysone-regulated Ferroportin-GFP (Fpn-GFP) construct. In resulting HEK293-Fpn cells bioactive hepcidin binds to ferroportin and specifically induces the internalization of Fpn-GFP. Briefly, Fpn-GFP was induced by ponasterone treatment for 24 h. Cells were then incubated with 0.1 to 0.5 μM purified human hepcidin (from urine) for 6 h and imaged by epi-fluorescence microscopy.

[2] = test system: hepcidin expression in RINm5F cells; test: Hepcidin expression in RINm5F cells by quantitative RT-PCR after stimulation; assay type: cell-based, rat
Experimental: (§1) RINM5F cells were grown in RPMI1640 media (PAA, Austria) containing L-glutamine, supplemented with 10% (vol/vol) heat inactivated fetal calf serum, penicillin (100 units/ml) and streptomycin (100 μg/mL). Cells were cultivated at 37° C. in 5% CO2. Cells were incubated with increasing concentrations of FENTA from 1 μM up to 65 μM for 72 hours and with 100 mM glucose (Merck, Darstadt, Germany) for up to 8 hours. After stimulation experiments, total rna or proteins were extracted from RINM5F cells and analyzed by quantitative PCR and immunoblot assays.
The regulation of hepcidin expression in RINm5F cells was analyzed upon exposure to iron, since iron regulates hepcidin expression in the liver. The regulatory effect of iron on hepcidin gene expression was measured in these cells under various FENTA concentrations using quantitative RT-PCR as described, for example, in Gehrke et al., Blood 102: 371-376 (2003). A 2-step reverse transcriptase-polymerase chain reaction (RT-PCR) was performed using the Lightcycler system and relative quantification software version 1.0 (ROCHE Molecular Biochemicals; Mannheim, Germany). […] In a second step, transcripts of hepcidin were amplified in duplicates with specific sense and antisense primers. all transcripts were detected using SYBR GREEN I according to manufacturer's instructions and were normalized to β-actin as internal control.

RINm5F cells = test: Neutral red cytotoxicity assay in RINm5F cells; assay type: cell-based, rat; details: FeNTA concentrations used, 3 days after iron stimulation
Experimental: (A): Hepcidin expression in RINm5F cells after iron (FeNTA) stimulation using quantitative RT-PCR (n=5) (1 μM FeNTA: P<0.01; 3 μM: P<0.001; 10 μM: P<0.002; 65 μM: P<0.05). (B): Cytotoxicity of FeNTA in RINm5F cells measured by neutral red assay 3 days after iron stimulation. […] (C): Immunoblot analysis of iron stimulated RINm5F cells showing hepcidin immunoreactivity at the range of 10 kDa. […] The second immunoreactive band at 20 kDa may reflect a dimeric type of hepcidin.
(§2) In these experiments, protein extracts were incubated for 7 min at 94° C. in sample buffer with 4% (wt/vol) SDS (Merck, Darmstadt, Germany), 50 mM TRIS-HCl (PH 8.45), 1 mM EDTA, 3.24 mM dithiothreitol (ROTH, Karlsruhe, Germany), 12.5% (wt/vol) glycerol (Merck, Darmstadt, Germany), and 0.002% Bromophenol blue (Merck, Darmstadt, Germany). To detect hepcidin, a 16.5% Tricine-SDS-polyacrylamide gel was used.

[3] = test system: hepcidin protein in RINm5F cells; test: Immunoblot analysis of hepcidin in stimulated RINm5F cells; assay type: cell-based, rat
Experimental: as §1, §2

With “Chemically synthesized hepcidin: hepcidin synthesized chemically” as the molecule, how does the “efficiency in inducing Fpn-GFP internalization compared with hepcidin purified from urine” value ([1]; same experiments as with urine hepcidin) read?
Its value is “as efficient in inducing Fpn-GFP internalization as hepcidin purified from urine”.

How did the hepcidin-mRNA regulation ([2]; FeNTA 1 μM up to 10 μM, 72 hours) turn out when `O=C([O-])CN(CC(=O)[O-])CC(=O)[O-].[Fe+3]` [FeNTA, Iron Nitrilotriacetate] was run?
The hepcidin-mRNA regulation was “significant up-regulation of hepcidin-mRNA up to three-fold”.

And the hepcidin expression ([2]; FeNTA 65 μM or higher)?
The hepcidin expression was “down-regulated”.

What about the “cytotoxicity in neutral red assay” value (RINm5F cells) of the same molecule?
Its value is “no cytotoxicity exists under the iron concentrations used”.

And the “cytotoxicity in neutral red assay” value (RINm5F cells; listed as FENTA)?
Its value is “not cytotoxic”.

And the “hepcidin immunoreactivity at 10 kDa compared to control” value ([3]; 3 μM FeNTA)?
Its value is “up-regulation of hepcidin”.

And the “hepcidin immunoreactivity at 10 kDa compared to control” value ([3]; 65 μM FeNTA)?
The value was “down-regulation”.

“hepcidin: purified human hepcidin (from urine), bioactive peptide hormone binding ferroportin” was tested. Which “time to Fpn internalization” value ([1]; 0.1 μM hepcidin) did it give?
Its value is no more than 1 h.

What about the “distribution of Fpn-GFP after addition of hepcidin” value ([1]; 0.1 to 0.5 μM purified human hepcidin (from urine), 6 h) of the same molecule?
Its value is “changed the distribution of Fpn-GFP from the cell surface to punctuate intracellular vesicles”.

What about the “concentration of hepcidin that induced Fpn internalization” value ([1]; HEK293-Fpn cells, within 1 h) of the same molecule?
Its value is no more than 0.1 µM.
